Results published in patent US6492328B2, “Novispirins: antimicrobial peptides” (priority 2000, dated 2002).
Like-named read-outs stand apart in the source and are kept apart here. Where no end group is shown, it is not given here.

Experiments:
[1] = tested on: E. coli ML 35P; format: cell-based, Escherichia coli; conditions: mean ± SEM, n = 3
Protocol: Antimicrobial activity. Several different methods were used to examine the antimicrobial properties of novispirins, including: a) two-stage radial diffusion assays; b) colony counting assays; and c) standard microbroth dilution assays.
Antimicrobial activity was tested in media with low, normal or high salinity. In radial diffusion assays, this was accomplished by using a low salt “basic medium” containing 0.3 mg of trypticase soy broth powder/ml of 10 mM sodium phosphate buffer, pH 7.4. Media with “normal” or “high” salinity were prepared by supplementing the basic medium with 100 mM NaCl to obtain media with normal salinity, or with 175-200 mM NaCl to obtain high salt media. Retention of activity against P. aeruginosa in high salt media is important because airway fluids from cystic fibrosis patients are reported to show hypersalinity, and other sites—including skin surfaces surfaces and the urinary bladder—may have locally high salt concentrations.
The relative activities of ovispirin and the novispirins against two organisms, E. coli and a multi-resistant strain of P. aeruginosa, are shown in FIG. 1. The MICs were obtained by radial diffusion assays performed under low, normal, and high salt conditions (which are denoted along the X-axis as 0, 100 and 200 mM NaCl, respectively).
Table 1 compares the activity of novispirins against these Gram-negative bacteria with its activity against Listeria monocytogenes, Staphylococcus aureus and C. albicans. […] Note that novispirins show activity against these Gram-positive bacteria when tested in physiological (100 mM NaCl) salt concentrations, and also that Novispirin G10 is quite active against C. albicans. Although neither ovispirin nor novispirins retained activity against C. albicans or the Gram positives under very high salt conditions (200 mM NaCl), they remained active against the Gram-negatives under these conditions. Consequently, even if the airways' NaCl concentrations are exceptionally high in CF patients, this factor will not impair the ability of ovispirin or novispirins to kill P. aeruginosa.

[2] = tested on: MRC-5 human lung fibroblasts; format: cell-based
Description: FIG. 5 compares the cytotoxicity of these peptides for MRC-5 human lung fibroblasts.

[3] = tested on: E. coli ML 35P; conditions: ML 35P
Description: Effect of serum. […] Because serum can be present in an inflammatory focus or exudate, the ability to function in the presence of serum would be a desirable property.
In these experiments, the underlay gel contained 60% RPMI-1640, ±2.5 or 20% normal human serum (NHS). The remainder of the solution was phosphate-buffered saline

[4] = tested on: human red blood cells; format: cell-based
Protocol: Hemolytic Activity: This was tested by incubating various concentrations of peptide with a suspension (2.8% v/v) of washed human, murine, sheep or bovine red cells in PBS. After 30 min at 37C, the tubes were centrifuged and the percentage of total hemoglobin released to the supernatant was measured.
Similar results were obtained with murine red blood cells. In contrast, none of these peptides were appreciably hemolytic towards sheep or bovine red blood cells.

[5] = tested on: K. pneumoniae; assay: Two stage radial diffusion assay with 10 mM HEPES, G10 variants (Table 8); format: cell-based; conditions: mean ± SEM, n = 3, in µg/mL
Description: (§1) Amidation (—NH2) of the carboxy terminus in some of the novispirin G10 variants was designed to increase overall positive charge. The sequences of these peptides and their net charge is shown below in Table 7. The fractional (and pH dependent) charge on histidine12 was ignored in this calculation.
(§2) In Table 8, MIC signifies minimal inhibitory concentration, as determined by two stage radial diffusion assays. […] Shaded boxes show results that represent a significant improvement of activity (p<0.01 by t-test), relative to novispirin G10. […] None of the above G10 novispirin derivatives caused any hemolysis of human red blood cells, even when tested at 80 μg/ml. It is likely that other cationic amino acids (e.g., lysine, ornithine, etc) could also be used in position 12 to achieve better activity in the presence of calcium and magnesium ions.

[6] = tested on: S. aureus; assay: as above; format: cell-based; conditions: mean ± SEM, n = 3, in µg/mL
Description: as §1, §2

[7] = tested on: P. aeruginosa; assay: as above; format: cell-based; conditions: mean ± SEM, n = 3, in µg/mL
Description: as §1, §2

[8] = tested on: E. coli; assay: as above; format: cell-based; conditions: mean ± SEM, n = 3, in µg/mL
Description: as §1, §2

[9] = tested on: C. trachomatis serovar L2; assay: McCoy cell shell vial assay, inclusion-forming units; format: cell-based, Chlamydia trachomatis; design: dose or concentration left out as unconfirmed
Protocol: (§3) C. trachomatis serovar L2 causes invasive LGV, whereas serovars D and E represent typical genital strains. The effect of G-10 on Chlamydia trachomatis serovars (L2, D and E) was determined using standard and modified McCoy cell shell vial assays and varying concentrations of peptide. In the standard assay, the Chlamydia/peptide mixture was pre-incubated for 2 hr., then removed from the host cell monolayer before the 48-hr. incubation. In the modified assay, the pre-incubation mixture was left on the monolayer for the 48 hr. incubation. In a third assay, G-10 and Chlamydia were mixed and infected to cell monolayers without pre-incubation, and examined after 48 hr. Inclusion-forming units (IFUs) were scored to measure the peptide's inhibitory effect.

[10] = tested on: C. trachomatis serovar D; assay: as above; format: cell-based, Chlamydia trachomatis; design: dose or concentration left out as unconfirmed
Protocol: as §3

[11] = Acute toxicity studies in mice, intravenous; format: in vivo
Protocol: In vivo toxicity. Acute toxicity studies were performed in mice. 3/3 mice survived an intravenous dose of 10 mg novispirin G10/kg body weight, and 1/3 survived a dose of 20 mg/kg.

[12] = tested on: C. trachomatis serovar E; assay: McCoy cell shell vial assay, inclusion-forming units; format: cell-based, Chlamydia trachomatis; conditions: 100 μg/ml, pre-incubation assays
Protocol: as §3

[13] = tested on: S. maltophilia 18CP; assay: Novispirins vs S. maltophilia (Table 5); format: cell-based, Stenotrophomonas maltophilia; design: unit not given here; conditions: strain 18CP
Protocol: (§4) Microorganisms used in this study included 13 different Pseudomonas aeruginosa strains. The AML-654 and LZ-1 strains are recent clinical isolates from the UCLA Clinical Microbiology laboratory. Nine strains (5 mucoid, 4 nonmucoid) were recent CF isolates provided by Dr. Lisa Saiman. All of the P. aeruginosa strains except PAO-1 strain were resistant to multiple conventional antibiotics, and all 9 CF isolates were resistant to 250 μg/ml of tobramycin. We have also tested 5 strains each of Stenotrophomonas maltophilia and Burkholderia cepacia from CF patients (also provided by Dr. Lisa Saiman), two strains of Escherichia coli (ML-35p and DH-5a), and single strains of Staphylococcus aureus[MRSA (methicillin-resistant S. aureus)] and C. albicans.

[14] = tested on: S. maltophilia 47CG; assay: Novispirins vs S. maltophilia (Table 5); format: cell-based, Stenotrophomonas maltophilia; design: unit not given here; conditions: strain 47CG
Protocol: as §4

[15] = tested on: S. maltophilia 42CK; assay: Novispirins vs S. maltophilia (Table 5); format: cell-based, Stenotrophomonas maltophilia; design: unit not given here; conditions: strain 42CK
Protocol: as §4

[16] = tested on: S. maltophilia 36CN; assay: Novispirins vs S. maltophilia (Table 5); format: cell-based, Stenotrophomonas maltophilia; design: unit not given here; conditions: strain 36CN
Protocol: as §4

[17] = tested on: S. maltophilia 51Cl; assay: Novispirins vs S. maltophilia (Table 5); format: cell-based, Stenotrophomonas maltophilia; design: unit not given here; conditions: strain 51Cl
Protocol: as §4

[18] = Very high salinity (+200 mM NaCl)

With “KNLRRIIRKTIHIIKKYG [T10 Novispirin, K N L R R I I R K T I H I I K K Y G]” the MIC ([1]; Low Salt (+0 mM NaCl)) was 0.5 ± 0.2 µg/mL, the MIC ([1]; Normal salinity (+100 mM NaCl)) was 0.3 ± 0.2 µg/mL and the MIC [1, 18] was 2.7 ± 1.1 µg/mL. The “cytotoxicity for MRC-5 human lung fibroblasts” value [2] was “virtually devoid of cytotoxicity”.

“KNLRRIIRKIIHIIKKYG [Ovispirin, K N L R R I I R K I I H I I K K Y G]” showed an MIC ([1]; Low Salt (+0 mM NaCl)) of 0.7 ± 0.0 µg/mL, an MIC ([1]; Normal salinity (+100 mM NaCl)) of 0.7 ± 0.1 µg/mL and an MIC [1, 18] of 1.5 ± 0.6 µg/mL. The MIC [3] was 1.7 µg/mL and the “hemolytic activity for human red blood cells” value [4] was “about as hemolytic for human red blood cells as protegrin PG-1”.

In the case of “KNLRRIIRKGIHIIKKYG-OH [G10 Novispirin, K N L R R I I R K G I H I I K K Y G]”, the MIC ([5]; +1 mM Ca) is reported as >250, the MIC ([5]; +1 mM Mg) is reported as >250 and the MIC ([5]; No Ca/Mg) is reported as 0.17 ± 0.03. The MIC ([6]; +1 mM Ca) was 99.0 ± 5.7, the MIC ([6]; +1 mM Mg) was >79 and the MIC ([6]; No Ca/Mg) was 22.7 ± 2.1. For the same substance, the MIC ([7]; +1 mM Ca) was >250, the MIC ([7]; +1 mM Mg) was >250 and the MIC ([7]; No Ca/Mg) was 0.17 ± 0.04. It also gave an MIC ([8]; +1 mM Ca) of 21.2 ± 0.36, an MIC ([8]; +1 mM Mg) of 20.3 ± 0.1 and an MIC ([8]; No Ca/Mg) of 0.09 ± 0.02. For the same substance, the “serovar L2 IFUs reduced” value [9] was 92.7-99.1%, the “serovar D IFUs reduced” value [10] was 99.4-100% and the MIC ([1]; Low Salt (+0 mM NaCl)) was 0.1 ± 0.0 µg/mL. For the same substance, the MIC ([1]; Normal salinity (+100 mM NaCl)) was 0.1 ± 0.0 µg/mL, the MIC [1, 18] was 1.8 ± 0.8 µg/mL and the peak level ([11]; 10 mg/kg dose, if blood volume of a mouse is 5% of its mass) was “approximately 200 micrograms/ml”. The mice survived ([11]; intravenous dose of 10 mg/kg body weight) was 3/3, the mice survived ([11]; intravenous dose of 20 mg/kg) was 1/3 and the “inhibition of C. trachomatis serovar E” value [12] was “completely inhibited”. The “activity vs S. maltophilia” value ([13]; +100 mM NaCl) was 0.70, the “activity vs S. maltophilia” value ([13]; +175 mM NaCl) was 1.30 and the “activity vs S. maltophilia” value ([13]; LOW SALT CONDITIONS) was 0.40. For the same substance, the “activity vs S. maltophilia” value ([14]; +100 mM NaCl) was 0.68, the “activity vs S. maltophilia” value ([14]; +175 mM NaCl) was 0.63 and the “activity vs S. maltophilia” value ([14]; LOW SALT CONDITIONS) was 0.08. The “activity vs S. maltophilia” value ([15]; +100 mM NaCl) was 0.67, the “activity vs S. maltophilia” value ([15]; +175 mM NaCl) was 10.0 and the “activity vs S. maltophilia” value ([15]; LOW SALT CONDITIONS) was 0.43. For the same substance, the “activity vs S. maltophilia” value ([16]; +100 mM NaCl) was 0.29, the “activity vs S. maltophilia” value ([16]; +175 mM NaCl) was 0.36 and the “activity vs S. maltophilia” value ([16]; LOW SALT CONDITIONS) was 0.15. The “activity vs S. maltophilia” value ([17]; +100 mM NaCl) was 3.57, the “activity vs S. maltophilia” value ([17]; +175 mM NaCl) was 8.18 and the “activity vs S. maltophilia” value ([17]; LOW SALT CONDITIONS) was 0.45. The “cytotoxicity for MRC-5 human lung fibroblasts” value [2] was “virtually devoid of cytotoxicity” and the “hemolytic activity for human red blood cells” value [4] was “nonhemolytic”.
